These molecules were tested on Hepatotoxicity (assay: FDA Liver Toxicity Knowledge Base Benchmark Dataset (LTKB-BD) drugs of most concern for DILI). Details: not given.

| Compound | LTKB_BD DILI severity score |
| --- | --- |
| CCCCCCCCCCC[C@@H](C[C@@H]1OC(=O)[C@H]1CCCCCC)OC(=O)[C@H](CC(C)C)NC=O [ORLISTAT] | 8 |
| O=C(O)c1ccc(-n2nc(-c3ccccc3O)nc2-c2ccccc2O)cc1 [DEFERASIROX] | 7 |
| C[C@H](Cn1cnc2c(N)ncnc21)OCP(=O)(O)O [TENOFOVIR ANHYDROUS] | 8 |
| NNC(=O)c1ccncc1 [ISONIAZID] | 8 |
| CC(C)C(=O)Nc1ccc([N+](=O)[O-])c(C(F)(F)F)c1 [FLUTAMIDE] | 8 |
| NC(=O)OCC(COC(N)=O)c1ccccc1 [FELBAMATE] | 7 |
| CC(c1cc2ccccc2s1)N(O)C(N)=O (centres undefined) [ZILEUTON] | 5 |
| CCc1nn(CCCN2CCN(c3cccc(Cl)c3)CC2)c(=O)n1CCOc1ccccc1 [NEFAZODONE] | 8 |
| CC(=O)O[C@@]12CO[C@@H]1C[C@H](O)[C@@]1(C)C(=O)[C@H](O)C3=C(C)[C@@H](OC(=O)[C@H](O)[C@@H](NC(=O)OC(C)(C)C)c4ccccc4)C[C@@](O)([C@@H](OC(=O)c4ccccc4)[C@H]21)C3(C)C.O.O.O [DOCETAXEL] | 8 |
| COc1ccc(CCN(C)CCCC(C#N)(c2ccc(OC)c(OC)c2)C(C)C)cc1OC (centres undefined) | 4 |
| C[C@]12C/C(=C/O)C(=O)C[C@@H]1CC[C@@H]1[C@@H]2CC[C@@]2(C)[C@H]1CC[C@]2(C)O [OXYMETHOLONE] | 8 |
| CC(C(=O)O)c1cccc(Oc2ccccc2)c1 (centres undefined) [FENOPROFEN] | 8 |
| NC(=O)NO [HYDROXYUREA] | 8 |
| CN(N=O)C(=O)N[C@@H](C=O)[C@@H](O)[C@H](O)[C@H](O)CO [STREPTOZOCIN] | 3 |
| CC(C)(C)NC(=O)[C@@H]1CN(Cc2cccnc2)CCN1C[C@@H](O)C[C@@H](Cc1ccccc1)C(=O)N[C@H]1c2ccccc2C[C@H]1O.O | 8 |
| C[C@H]1O[C@H](O[C@H]2[C@H](O)[C@@H](O)[C@@H](O[C@H]3[C@H](O)[C@@H](O)C(O)O[C@@H]3CO)O[C@@H]2CO)[C@H](O)[C@@H](O)[C@@H]1N[C@H]1C=C(CO)[C@@H](O)[C@H](O)[C@H]1O (some centres undefined) [ACARBOSE] | 5 |
| COC(c1ccccc1)(c1ccccc1)[C@H](Oc1nc(C)cc(C)n1)C(=O)O [AMBRISENTAN] | 5 |

Same assay, conditions: Liver

| Compound | LTKB_BD DILI severity score |
| --- | --- |
| CC1=NN(c2ccc(C)c(C)c2)C(=O)/C1=N\Nc1cccc(-c2cccc(C(=O)O)c2)c1O [ELTROMBOPAG] | 6 |
| Nc1ccn([C@H]2CC[C@@H](CO)O2)c(=O)n1 [ZALCITABINE] | 8 |

Source: ChEMBL document CHEMBL1909281, “FDA-approved drug labeling for the study of drug-induced liver injury” (Drug Discov Today, 2011)
